The target in experiment [1] is PD-1/PD-L1 PPI (Homo sapiens, UniProt Q9NZQ7). The experiment can be described thus: PDL1/PD1 Binding Assay. The following applies: PDL1-6×His 0.3 nM, PD1-Fc-Avi-Biotin 2.5 nM, Acceptor/Donor beads, Envision reader. The procedure: Compounds to be tested were serially diluted in DMSO, and further diluted in assay buffer (25 mM Hepes pH 7.4, 150 mM NaCl, 0.005% Tween 20, BSA 0.01%). Diluted compounds were added to the wells with final concentration of DMSO at 1%. PDL1-6×His protein was added to the wells, mixed well with compound. The plates were incubated for 30 min at room temperature. PD1-Fc-Avi-Biotin protein was added to the wells. Final concentration of PDL1 and PD1 protein is 0.3 nM and 2.5 nM, respectively. After a binding time of 30 min at room temperature, Anti-6×His Acceptor beads (final concentration 20 ug/ml) were added to the wells, and the incubation continued for 1 h. Streptavidin Donor beads (final concentration 20 ug/mL) were added at reduced light. The plates were sealed with foil and incubated in the dark for additional 1 h or overnight before reading on an Envision reader. The IC50 values were determined by fitting the curves using a four-parameter equation in Graphpad Prism 8.

Experiment [2] relates to PD-1/PD-L1 interaction. The experiment can be described thus: PD-1/PD-L1 NFAT Reporter Assay (co-culture of Jurkat T cells overexpressing PD-1 and PD-L1 expressing CHO cells). Type of experiment: cell-based. To be noted: co-culture 6 hrs at 37° C., NFAT-mediated luciferase activity. The procedure: Blocking the PD-1/PD-L1 interaction will release the inhibitory signal and results in TCR signaling and NFAT-mediated luciferase activity.
CHO cells expressing surface-bound anti-CD3 antibodies and PD-L1 were first seeded overnight and treated with the compounds. Jurkat cells overexpressing PD-1 and a luciferase construct under NFAT promoter were then immediately seeded on the monolayer of CHO cells. The co-culture was then incubated for 6 hrs at 37° C. Luciferase activity was assessed by adding the ONE-Glo reagent and measuring luminescence with a plate reader. EC50 values were determined from the fit of the dose-response curves.
In general terms: In a reporter assay the amount or activity of a reporter protein is the signal.

PD-1/PD-L1 PPI, sequence (Q9NZQ7 19-238 limits assumed): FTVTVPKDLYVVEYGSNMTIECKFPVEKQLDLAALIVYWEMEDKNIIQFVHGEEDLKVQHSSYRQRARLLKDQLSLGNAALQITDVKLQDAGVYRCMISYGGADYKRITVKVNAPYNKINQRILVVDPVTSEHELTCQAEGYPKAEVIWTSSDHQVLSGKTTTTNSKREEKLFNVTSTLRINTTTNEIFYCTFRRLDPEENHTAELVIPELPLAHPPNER

What is called IC50 is the concentration at which inhibition is half-maximal. As a reminder, the EC50 is the concentration that produces a half-maximal response. Read a low EC50 as greater potency. As for `COc1nc(-c2cccc(-c3cccc(NC(=O)c4cn(C)c(=O)n(C)c4=O)c3Cl)c2Cl)cc2c1C(N[C@@H]1CCOC[C@H]1O)CC2` (stereo partly drawn) [Compound D-6], in experiment [1], the IC50 was ≤ 10 nM. Further, the EC50 in experiment [2] (Homo sapiens, Jurkat, 6 h) fell in the range of 10 to 100 nM.

For `COc1nc(-c2cccc(-c3cccc(NC(=O)c4cn(C)c(=O)n(C)c4=O)c3Cl)c2Cl)cc2c1[C@H](N[C@@H]1CCOC[C@@H]1O)CC2` (single isomer, unassigned) [Compound A-30], the IC50 in experiment [1] is ≤ 10 nM. This molecule showed an EC50 in experiment [2] (Homo sapiens, Jurkat, 6 h) of 100 to 1000 nM.

In the case of `COc1nc(-c2cccc(-c3cccc(NC(=O)c4nn(C)c(=O)n(C)c4=O)c3C)c2Cl)cc2c1[C@@H](N[C@@H]1COC[C@H]1O)CC2` (single isomer, unassigned) [Compound A-101], the IC50 in experiment [1] is ≤ 10 nM. For the same molecule, the EC50 in experiment [2] (Homo sapiens, Jurkat, 6 h) is > 5000 nM.

Turning to `COc1nc(-c2cccc(-c3cccc(NC(=O)c4cn(C)c(=O)n(C)c4=O)c3C)c2Cl)cc2c1[C@@H](N1CC3(CNC(=O)C3)C1)CC2` (single isomer, unassigned) [Compound A-131], in experiment [1], the 50% inhibitory concentration (IC50) was ≤ 10 nM. Also, the EC50 in experiment [2] was ≤ 10 nM.

As for `COc1nc(-c2cccc(-c3cccc(NC(=O)c4c[nH]c(=O)[nH]c4=O)c3C)c2Cl)cc2c1[C@@H](NC[C@@H]1CCC(=O)N1)CC2` [Compound A-54], the IC50 in experiment [1] is ≤ 10 nM. Further, the EC50 in experiment [2] (Homo sapiens, Jurkat, 6 h) lay in the range of 10 to 100 nM.

For `COc1nc(-c2cccc(-c3cccc(NC(=O)c4cn(C)c(=O)n(C)c4=O)c3C)c2Cl)cc2c1[C@@H](NC[C@@H]1CCC(=O)N1)CO2` (single isomer, unassigned) [Compound A-19], the IC50 in experiment [1] was ≤ 10 nM. In addition, in experiment [2] (Homo sapiens, Jurkat, 6 h), the EC50 is 10 to 100 nM.

As to `COc1nc(-c2cccc(-c3cccc(NC(=O)c4cn(C)c(=O)n(C)c4=O)c3C)c2Cl)cc2c1[C@@H](NC[C@@H]1CNC(=O)C1)CC2` (single isomer, unassigned) [Compound A-137], the IC50 in experiment [1] was ≤ 10 nM. In experiment [2] (Homo sapiens, Jurkat, 6 h), the EC50 lay in the range of 1000 to 10000 nM.

For the molecule `CCOC(=O)C1CN([C@H]2CCc3cc(-c4cccc(-c5cccc(NC(=O)c6cn(C)c(=O)n(C)c6=O)c5Cl)c4Cl)nc(OC)c32)C1` (single isomer, unassigned) [Compound A-85], in experiment [1], the IC50 was ≤ 10 nM. In experiment [2] (Homo sapiens, Jurkat, 6 h), the EC50 was in the range of 10 to 100 nM.

`COc1nc(-c2cc(F)cc(-c3cc(F)cc(NC(=O)c4cn(C)c(=O)n(C)c4=O)c3Cl)c2Cl)cc2c1[C@@H](NC[C@@H]1CCC(=O)N1)CC2` [Compound A-66]: in experiment [1], the IC50 is ≤ 10 nM. In experiment [2] (Homo sapiens, Jurkat, 6 h), this molecule displayed an EC50 of 10 to 100 nM.

Regarding `COc1nc(-c2cccc(-c3cccc(NC(=O)c4cn(C)c(=O)n(C)c4=O)c3C)c2Cl)cc2c1C(NC[C@@H]1CCC(=O)N1)C(O)C2` (single isomer, unassigned) [Compound A-126], the IC50 in experiment [1] was ≤ 10 nM. The molecule also yielded an EC50 in experiment [2] of 10 to 100 nM.

As for `COc1nc(-c2cccc(-c3cccc(NC(=O)c4cn(C)c(=O)n(C)c4=O)c3F)c2F)cc2c1[C@H](NC[C@@H]1CCC(=O)N1)CC2` [Compound A-17], the IC50 in experiment [1] is ≤ 10 nM. In experiment [2] (Homo sapiens, Jurkat, 6 h), this molecule had an EC50 of 100 to 1000 nM.

For the molecule `COc1nc(-c2cccc(-c3cccc(NC(=O)c4nn(C)c(=O)n(C)c4=O)c3Cl)c2Cl)cc2c1[C@@H](N[C@@H]1COC[C@@H]1O)CC2` (single isomer, unassigned) [Compound A-107], in experiment [1], the IC50 was ≤ 10 nM. Besides, in experiment [2] (Homo sapiens, Jurkat, 6 h), the EC50 is ≤ 10 nM.

Take `COc1nc(-c2cccc(-c3cccc(NC(=O)c4ccnn(C)c4=O)c3Cl)c2Cl)cc2c1[C@@H](NC[C@@H]1CCC(=O)N1)CC2` [Compound A-43]: in experiment [1], the IC50 was ≤ 10 nM. For the same molecule, the EC50 in experiment [2] (Homo sapiens, Jurkat, 6 h) was ≤ 10 nM.

With `COc1nc(-c2cccc(-c3cccc(NC(=O)c4cn(C)c(=O)n(C)c4=O)c3Cl)c2F)cc2c1[C@@H](NC[C@@H]1CCC(=O)N1)CC2` [Compound A-7], the IC50 in experiment [1] was ≤ 10 nM. The EC50 in experiment [2] (Homo sapiens, Jurkat, 6 h) is ≤ 10 nM.

Regarding `COc1nc(-c2cccc(-c3cccc(NC(=O)c4cn(C)c(=O)n(C)c4=O)c3Cl)c2Cl)cc2c1[C@@H](N1CC3(CNC(=O)C3)C1)CC2` (single isomer, unassigned) [Compound A-129], the IC50 in experiment [1] is ≤ 10 nM. Moreover, the EC50 in experiment [2] (Homo sapiens, Jurkat, 6 h) is ≤ 10 nM.

The values above are taken from US12534450B2, “Methods and compositions for targeting PD-L1” (Aligos Therapeutics, Inc., priority 2021, dated 2026).
